Source: patent US20050059745A1, “Antiviral therapy” (priority 1999, published 2005)

Columns and labels:
[1] = system: monocyte-derived macrophages (MDM); assay: MDM viability, MTT cytotoxicity assay; assay type: cell-based, human; settings: 4 day incubation
Method: FIG. 3—Monocyte-derived macrophages (MDM) were obtained like described in legend of FIG. 2. […] After a 4 day incubation period, cellular viability was assessed by MTT cytotoxicity assay where viable cells convert MTT into a colored formazan dye that can be measured spectrophotometrically.
Cell viability is assessed by the MTT assay. In short, cells are incubated with MTT 3-(4,5-dimethylthiazol-2-yl)-2,5-diphenyltetrazollumbromide (Sigma) for 2 hours at 37° C. During this time viable cells convert MTT into […] formazan dyes. Afterwards crystals are solubilized with a solution containing isopropanol. The OD of the supernatant is measured at 550 nm.
Monocyte-derived macrophages (MDM) were obtained like described above. […] After a 4 days incubation period cellular viability was assessed by MTT cytotoxicity assay where viable cells convert MTT into a colored formazan dye that can be measured spectrophotometrically.

[2] = system: HIV-1; settings: PBMC, FIG. 4
Method: (§1) FIG. 4—Peripheral blood mononuclear cells (PBMC) were isolated from heparinized blood from HIV-1-, HIV-2-, and hepatitis B-seronegative donors and obtained on Ficoll-Hypaque density gradients. Cells were washed twice, stimulated with 5 mg/ml phytohemagglutinin (PHA), and cultured in RPMI-1640 medium supplemented with 5 mM Hepes, 19 mM sodium bicarbonate, 10 mg/mL gentamycin, and 10% heat-inactivated fetal calf serum at a concentration of 2×10^6 cells/ml. After 3 days of incubation stimulated PBMC were recovered from the flasks and infected for 2 hours with (a) HIV-1AT at a multiplicity of infection of 0.001, (b) HIV-1BaL at a multiplicity of infection of 0.006 and (c) HIV-1BaL or HIV-1AT at a multiplicity of infection of 0.01 or 0.001, respectively. HIV-infected and mock-infected PBMC were washed twice to remove unbound virus and cultured for 4 to 7 days in different concentrations of APHS. After 4 and 5 days of incubation samples of culture supernatant were collected and p24-core antigen production was quantified using the enzyme-linked immunosorbent assay (ELISA) system of John Moore.

[3] = system: HIV-1Ba-L; assay: HIV-1 production of chronically infected PBMC, p24 ELISA; assay type: cell-based; settings: APHS added 5 days after infection, 2 days incubation (FIG. 6B)
Method: (A, B) Peripheral blood mononuclear cells (PBMC) were isolated from heparinized blood from HIV-1-, HIV-2-, and hepatitis B- seronegative donors and obtained on Ficoll-Hypaque density gradients. Cells were washed twice, stimulated with 5 μg/ml phytohemagglutinin (PHA), and cultured in RPMI-1640 medium supplemented with 5 mM Hepes, 19 mM sodium bicarbonate, 10 μg/mL gentamycin, and 10% heat-inactivated fetal calf serum (PBMC culture medium) at a concentration of 2×10^6 cells/ml. After 3 days of incubation stimulated PBMC were recovered from the flasks and infected for 2 hours with HIV-1Ba-L at a multiplicity of infection of 0.01. Afterwards, HIV-infected and mock-infected PBMC were washed twice to remove unbound virus. (A) PBMC were cultured at a density of 6×10^5 cells/well with different concentrations of APHS and after 5 days of incubation samples of culture supernatant were collected. (B) PBMC were cultured in suspension at a concentration of 2×10^6 cells/ml in Teflon flasks in PBMC culture medium. […] After 2 days of incubation samples of culture supernatant were collected. p24-core antigen production was quantified using the enzyme-linked immunosorbent assay (ELISA) system of John Moore. […]

[4] = Toxicity determinations of anti-viral compounds (Table 3); assay type: cell-based
[5] = system: drug-resistant HIV strains; settings: drug-resistant vs sensitive strain
[6] = system: PBMC; assay: PBMC viability, WST-1 cytotoxicity assay; assay type: cell-based, human; settings: 5 days incubation
Method: FIG. 5—PBMC were obtained and stimulated as described in legend of FIG. 4. […] After a 5 days incubation period, cellular viability was assessed by WST-1 cytotoxicity assay where viable cells convert WST-1 into a coloured formazan dye that can be measured spectrophotometrically.
Cell viability is assessed with WST-1 assay. Cells are incubated with the tetrazolium salt WST-1 (4-[3-(4-lodophenyl)-2-(4-nitrophenyl)-2H-5-tetrazolio]-1,3-benzene disulfonate) for 2 hours at 37° C. During this time viable cells convert WST-1 into water-soluble formazan dyes. The OD of the supernatant is measured at 550 nm.

[7] = system: HIV-1Ba-L; assay: HIV-1 production by chronically infected MDM, p24 ELISA; assay type: cell-based; settings: APHS added 5 days after infection, 2 days incubation (FIG. 6D)
[8] = system: HIV-1Ba-L; assay: HIV-1Ba-L replication in acutely infected monocyte-derived macrophages, p24 ELISA; assay type: cell-based; settings: 30 μM APHS, acutely infected MDM, moi 0.02
Method: Concentrations above 0.3 μM APHS inhibit p24 production. 30 μM APHS inhibits HIV-1 replication by 88%.
Cells are washed twice and monocytes are purified by countercurrent centrifugal elutriation.

[9] = system: HIV-1BaL; assay: HIV-1BaL replication in acutely infected PHA-stimulated PBMC, p24 ELISA; assay type: cell-based
Method: as §1
Peripheral blood mononuclear cell (PBMC) fractions are isolated from heparinised blood from HIV-1-, HIV-2- and hepatitis B- seronegative donors (Blood-bank, Utrecht, the Netherlands) by Ficoll-Isopaque gradient separation. Cells are washed twice, stimulated with 4 μg/ml phytohemagglutinin (PHA), and cultured in RPMI-1640 medium supplemented with 5 mM Hepes, 19 mM sodium bicarbonate, 10 μg/ml gentamycin, and 10% heat-inactivated fetal calf serum at a concentration of 1×10^6 cells/ml.
(A, B) Peripheral blood mononuclear cells (PBMC) were isolated from heparinized blood from HIV-1-, HIV-2-, and hepatitis B- seronegative donors and obtained on Ficoll-Hypaque density gradients. […] After 2 days of incubation samples of culture supernatant were collected. p24-core antigen production was quantified using the enzyme-linked immunosorbent assay (ELISA) system of John Moore.

[10] = system: HIV-1; settings: Table 3
Method: MDM, and PBMC, were incubated with HIV at a multiplicity of infection of 0.02, and 0.006 or 0.001, respectively. After two hours cells are washed to remove unbound virus and cultured for 4 to 7 days in different concentrations of the drug under investigation. On day 4, 5 and 7, 0.01 ml of supernatant is removed from the culture and virus in culture supernatant is inactivated in a final concentration of 0.05% empigen (Calbiochem-Novabiochem Co., La Jolla, Calif.). The presence of HIV-1 in the inactivated supernatant is monitored by checking for the p24-core antigen using the enzyme-linked immunosorbent assay (ELISA) system of John Moore.

Structure (SMILES)	cytotoxicity (MTT) [1]	APHS concentrations that inhibit HIV-1 production [2]	inhibition of HIV-1 production of chronically infected PBMCs [3]	not toxic at [4]	inhibitory activity against drug resistant strains relative to a sensitive strain [5]	concentrations found to reduce viability (WST-1) [6]	inhibition of HIV-1 production by chronically infected MDM [7]	inhibition of HIV-1 replication [8]	inhibition of HIV-1BaL production ([9]; 1 μM APHS, PBMC, lower infectivity (FIG. 4c))	inhibition of HIV-1Ba-L replication ([9]; 30 μM APHS, acutely infected PBMC, moi 0.01 (FIG. 6A))	inhibition of HIV-1BaL replication ([9]; PBMC, FIG. 4)	APHS concentrations that inhibit HIV-1Ba-L replication ([9]; acutely infected PBMC, moi 0.01, 5 days (FIG. 6A))	IC50 [10]
CCCCC#CCSc1ccccc1OC(C)=O [APHS, o-(acetoxy-phenyl)hept-2-ynyl sulfide]	None of the tested concentrations of APHS was found to be cytotoxic	above 1 μM	does not inhibit	30 µM	two- to four-fold higher	≥ 100 µM	does not inhibit	88%	50%	100%	100%	above 3 μM	10 µM
CCCCC#CCSc1ccccc1OCCCC [BPHS]	–	–	–	30 µM	–	–	–	–	–	–	–	–	40 µM
